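Protocol summary: plate cells (96-well), add compound at 5 concentrations, incubate 48 h, interpolate endpoints linearly. GI50: concentration for 50% inhibition of growth. Definition used: TGI = concentration required for complete inhibition of growth.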
How the values were obtained:
Assay in all cases: NCI-60 cell line screen, 48 h
[1] = tested on: HT29 colon
[2] = tested on: M14 melanoma
[3] = tested on: COLO 205 colon
[4] = tested on: SK-MEL-28 melanoma
[5] = tested on: HCC-2998 colon
[6] = tested on: OVCAR-3 ovarian
[7] = tested on: SW-620 colon
[8] = tested on: NCI-H23 lung
[9] = tested on: SF-268 CNS
[10] = tested on: OVCAR-5 ovarian
[11] = tested on: CAKI-1 renal
[12] = tested on: SNB-19 CNS
[13] = tested on: TK-10 renal
[14] = tested on: MOLT-4 leukemia
[15] = tested on: BT-549 breast
[16] = tested on: SF-295 CNS
[17] = tested on: MDA-MB-231 breast
[18] = tested on: NCI-H460 lung
[19] = tested on: IGROV1 ovarian
[20] = tested on: UACC-62 melanoma
[21] = tested on: HOP-92 NSCLC
[22] = tested on: MALME-3M melanoma
[23] = tested on: HS 578T breast
[24] = tested on: UO-31 renal
[25] = tested on: RXF 393 renal
[26] = tested on: SK-MEL-5 melanoma
[27] = tested on: MCF7 breast
[28] = tested on: T-47D breast
[29] = tested on: SR leukemia
[30] = tested on: U251 CNS
[31] = tested on: SK-OV-3 ovarian
[32] = tested on: CCRF-CEM leukemia
[33] = tested on: ACHN renal
[34] = tested on: LOX IMVI melanoma
[35] = tested on: HOP-62 NSCLC
[36] = tested on: MDA-MB-468 breast
[37] = tested on: A549 NSCLC
[38] = tested on: NCI-H522 lung
[39] = tested on: EKVX NSCLC
[40] = tested on: SF-539 CNS
[41] = tested on: NCI-H226 lung
[42] = tested on: UACC-257 melanoma
[43] = tested on: OVCAR-4 ovarian
[44] = tested on: SN12C renal
[45] = tested on: OVCAR-8 ovarian
[46] = tested on: HL-60(TB) leukemia
[47] = tested on: A498 renal
[48] = tested on: PC-3 prostate
[49] = tested on: SNB-75 CNS
[50] = tested on: MDA-MB-435
[51] = tested on: HCT-15 colon
[52] = tested on: RPMI-8226 leukemia
[53] = tested on: HCT-116 colon
[54] = tested on: SK-MEL-2 melanoma
[55] = tested on: DU-145 prostate
[56] = tested on: KM12 colon
[57] = tested on: K-562 leukemia
[58] = tested on: 786-0 renal

Q: With `O=C(/C=C/c1ccc(Cl)cc1)c1nc2ccccc2n1Cc1ccc(F)cc1` as the compound, how does the GI50 [1] read?
A: Its GI50 is 13.1 µM.

Q: What about the TGI [1] of the same compound?
A: Its TGI is 31.5 µM.

Q: What about the GI50 [2] of the same compound?
A: Its GI50 is 14.1 µM.

Q: And the TGI [2]?
A: Its TGI is 32 µM.

Q: What about the GI50 [3] of the same compound?
A: The GI50 was 14.8 µM.

Q: What about the TGI [3] of the same compound?
A: The TGI was 32.9 µM.

Q: What about the GI50 [4] of the same compound?
A: Its GI50 is 14.9 µM.

Q: What about the TGI [4] of the same compound?
A: Its TGI is 32.5 µM.

Q: And the GI50 [5]?
A: Its GI50 is 14.7 µM.

Q: And the TGI [5]?
A: The TGI was 28.5 µM.

Q: And the GI50 [6]?
A: The GI50 was 5.05 µM.

Q: And the TGI [6]?
A: Its TGI is 22.2 µM.

Q: And the GI50 [7]?
A: Its GI50 is 8.58 µM.

Q: And the TGI [7]?
A: Its TGI is 28.6 µM.

Q: What about the GI50 [8] of the same compound?
A: Its GI50 is 14.4 µM.

Q: And the TGI [8]?
A: Its TGI is 36.8 µM.

Q: What about the GI50 [9] of the same compound?
A: The GI50 was 19.2 µM.

Q: And the TGI [9]?
A: Its TGI is > 100 µM.

Q: What about the GI50 [10] of the same compound?
A: Its GI50 is 17.5 µM.

Q: What about the TGI [10] of the same compound?
A: Its TGI is 37.2 µM.

Q: What about the GI50 [11] of the same compound?
A: Its GI50 is 7.89 µM.

Q: And the TGI [11]?
A: Its TGI is 43 µM.

Q: What about the GI50 [12] of the same compound?
A: Its GI50 is 14.7 µM.

Q: And the TGI [12]?
A: The TGI was 33 µM.

Q: What about the GI50 [13] of the same compound?
A: The GI50 was 20 µM.

Q: And the TGI [13]?
A: Its TGI is 75.8 µM.

Q: What about the GI50 [14] of the same compound?
A: The GI50 was 4.15 µM.

Q: And the TGI [14]?
A: Its TGI is > 100 µM.

Q: And the GI50 [15]?
A: The GI50 was 11.8 µM.

Q: And the TGI [15]?
A: Its TGI is 30.4 µM.

Q: What about the GI50 [16] of the same compound?
A: Its GI50 is 14.3 µM.

Q: What about the TGI [16] of the same compound?
A: Its TGI is 33.9 µM.

Q: What about the GI50 [17] of the same compound?
A: Its GI50 is 16.4 µM.

Q: What about the TGI [17] of the same compound?
A: The TGI was 42 µM.

Q: And the GI50 [18]?
A: Its GI50 is 11 µM.

Q: And the TGI [18]?
A: Its TGI is 28.4 µM.

Q: And the GI50 [19]?
A: Its GI50 is 14.5 µM.

Q: And the TGI [19]?
A: Its TGI is 41.9 µM.

Q: And the GI50 [20]?
A: Its GI50 is 13.2 µM.

Q: What about the TGI [20] of the same compound?
A: Its TGI is 30.5 µM.

Q: What about the GI50 [21] of the same compound?
A: The GI50 was 7.12 µM.

Q: What about the TGI [21] of the same compound?
A: The TGI was 79.7 µM.

Q: And the GI50 [22]?
A: Its GI50 is 15.2 µM.

Q: And the TGI [22]?
A: Its TGI is 34.3 µM.

Q: What about the GI50 [23] of the same compound?
A: The GI50 was 19.8 µM.

Q: What about the TGI [23] of the same compound?
A: The TGI was > 100 µM.

Q: What about the GI50 [24] of the same compound?
A: The GI50 was 9.9 µM.

Q: And the TGI [24]?
A: Its TGI is 22 µM.

Q: What about the GI50 [25] of the same compound?
A: Its GI50 is 7.71 µM.

Q: And the TGI [25]?
A: Its TGI is 21.7 µM.

Q: What about the GI50 [26] of the same compound?
A: Its GI50 is 15.2 µM.

Q: And the TGI [26]?
A: The TGI was 36.2 µM.

Q: And the GI50 [27]?
A: Its GI50 is 3.76 µM.

Q: And the TGI [27]?
A: Its TGI is 76.4 µM.

Q: What about the GI50 [28] of the same compound?
A: Its GI50 is 5.89 µM.

Q: And the TGI [28]?
A: Its TGI is 33.9 µM.

Q: What about the GI50 [29] of the same compound?
A: Its GI50 is 5.12 µM.

Q: What about the TGI [29] of the same compound?
A: The TGI was > 100 µM.

Q: What about the GI50 [30] of the same compound?
A: The GI50 was 10.3 µM.

Q: What about the TGI [30] of the same compound?
A: Its TGI is 25.2 µM.

Q: And the GI50 [31]?
A: Its GI50 is 41.2 µM.

Q: And the TGI [31]?
A: The TGI was > 100 µM.

Q: What about the GI50 [32] of the same compound?
A: The GI50 was 4.12 µM.

Q: What about the TGI [32] of the same compound?
A: Its TGI is > 100 µM.

Q: What about the GI50 [33] of the same compound?
A: The GI50 was 17.7 µM.

Q: What about the TGI [33] of the same compound?
A: The TGI was 51.4 µM.

Q: And the GI50 [34]?
A: The GI50 was 4.97 µM.

Q: And the TGI [34]?
A: The TGI was 18.1 µM.

Q: What about the GI50 [35] of the same compound?
A: Its GI50 is 14.8 µM.

Q: What about the TGI [35] of the same compound?
A: The TGI was 36.8 µM.

Q: And the GI50 [36]?
A: Its GI50 is 10.4 µM.

Q: What about the TGI [36] of the same compound?
A: The TGI was 28 µM.

Q: What about the GI50 [37] of the same compound?
A: The GI50 was 22.9 µM.

Q: And the TGI [37]?
A: Its TGI is > 100 µM.

Q: What about the GI50 [38] of the same compound?
A: Its GI50 is 13.7 µM.

Q: And the TGI [38]?
A: Its TGI is 31.4 µM.

Q: What about the GI50 [39] of the same compound?
A: Its GI50 is 17.5 µM.

Q: And the TGI [39]?
A: The TGI was 44.9 µM.

Q: And the GI50 [40]?
A: Its GI50 is 14.1 µM.

Q: And the TGI [40]?
A: Its TGI is 27.9 µM.

Q: And the GI50 [41]?
A: The GI50 was 20.8 µM.

Q: And the TGI [41]?
A: The TGI was 62.1 µM.

Q: What about the GI50 [42] of the same compound?
A: Its GI50 is 19.5 µM.

Q: What about the TGI [42] of the same compound?
A: The TGI was 86.8 µM.

Q: And the GI50 [43]?
A: Its GI50 is 23.4 µM.

Q: What about the TGI [43] of the same compound?
A: The TGI was > 100 µM.

Q: What about the GI50 [44] of the same compound?
A: Its GI50 is 18.7 µM.

Q: What about the TGI [44] of the same compound?
A: Its TGI is 70.9 µM.

Q: And the GI50 [45]?
A: The GI50 was 13.9 µM.

Q: What about the TGI [45] of the same compound?
A: Its TGI is 42.5 µM.

Q: What about the GI50 [46] of the same compound?
A: The GI50 was 9.53 µM.

Q: What about the TGI [46] of the same compound?
A: The TGI was 47.1 µM.

Q: What about the GI50 [47] of the same compound?
A: Its GI50 is > 100 µM.

Q: And the TGI [47]?
A: The TGI was > 100 µM.

Q: What about the GI50 [48] of the same compound?
A: Its GI50 is 14.3 µM.

Q: What about the TGI [48] of the same compound?
A: The TGI was 58.5 µM.

Q: What about the GI50 [49] of the same compound?
A: Its GI50 is 2.9 µM.

Q: And the TGI [49]?
A: The TGI was > 100 µM.

Q: What about the GI50 [50] of the same compound?
A: The GI50 was 11.4 µM.

Q: What about the TGI [50] of the same compound?
A: Its TGI is 29.4 µM.

Q: What about the GI50 [51] of the same compound?
A: Its GI50 is 7.86 µM.

Q: What about the TGI [51] of the same compound?
A: The TGI was 23.4 µM.

Q: What about the GI50 [52] of the same compound?
A: The GI50 was 4.59 µM.

Q: And the TGI [52]?
A: Its TGI is 53 µM.

Q: And the GI50 [53]?
A: The GI50 was 11.8 µM.

Q: And the TGI [53]?
A: The TGI was 25.2 µM.

Q: And the GI50 [54]?
A: The GI50 was 14.5 µM.

Q: And the TGI [54]?
A: The TGI was 40.1 µM.

Q: And the GI50 [55]?
A: The GI50 was 16.5 µM.

Q: And the TGI [55]?
A: The TGI was 63.3 µM.

Q: What about the GI50 [56] of the same compound?
A: The GI50 was 11.9 µM.

Q: And the TGI [56]?
A: Its TGI is 45.7 µM.

Q: And the GI50 [57]?
A: The GI50 was 6.18 µM.

Q: And the TGI [57]?
A: Its TGI is > 100 µM.

Q: And the GI50 [58]?
A: Its GI50 is 13.2 µM.

Q: What about the TGI [58] of the same compound?
A: The TGI was 28.9 µM.
